Results as given in patent US12077503B2, “Substituted cyclic amides and their use as herbicides” (FMC CORPORATION, priority 2015, dated 2024).

Columns and labels:
Type in all cases: in vivo
[1] = tested on: barnyardgrass (Echinochloa crus-galli); assay: Test A preemergence; settings: Echinochloa crus-galli, pre-emergence, 240 h, Preemergence
Procedure, shortened: (§1)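 Each rating is a visual injury score from 0 to 100 given about 10 d after treatment, judged against untreated controls kept alongside in the greenhouse. In loam soil–sand blend, seeds got a preemergence directed soil spray, while postemergence plants were 2 to 10 cm tall at spraying.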

[2] = tested on: pigweed (Amaranthus retroflexus); assay: Test A preemergence; settings: Amaranthus retroflexus, pre-emergence, 240 h, 0 to 100 scale where 0 is no effect and 100 is complete control, read-out: Pigweed plant response rating
[3] = tested on: Kochia (Kochia scoparia); assay: Test A preemergence; settings: Bassia scoparia, pre-emergence, 240 h, 0 to 100 scale where 0 is no effect and 100 is complete control, read-out: Kochia plant response rating
Procedure, shortened: as §1

[4] = tested on: ryegrass, Italian (Italian ryegrass, Lolium multiflorum); assay: Test A preemergence; settings: Lolium multiflorum, pre-emergence, 240 h, 0 to 100 scale where 0 is no effect and 100 is complete control, read-out: Ryegrass, Italian plant response rating
Procedure, shortened: as §1

[5] = tested on: giant foxtail (Setaria faberii); assay: Test A preemergence; settings: Setaria faberi, pre-emergence, 240 h, Preemergence
Procedure, shortened: as §1

[6] = tested on: ragweed (common ragweed, Ambrosia elatior); assay: Test A preemergence; settings: Ambrosia artemisiifolia, pre-emergence, 240 h, 0 to 100 scale where 0 is no effect and 100 is complete control, read-out: Ragweed plant response rating
Procedure, shortened: as §1

[7] = tested on: barnyardgrass (Echinochloa crus-galli); assay: Test A postemergence; settings: Echinochloa crus-galli, post-emergence, 240 h
Procedure, shortened: as §1

[8] = tested on: pigweed (Amaranthus retroflexus); assay: Test A postemergence; settings: Amaranthus retroflexus, post-emergence, 240 h
Procedure, shortened: as §1

[9] = tested on: corn (Zea mays); assay: Test A postemergence; settings: Zea mays, post-emergence, 240 h
Procedure, shortened: as §1

[10] = tested on: Kochia (Kochia scoparia); assay: Test A postemergence; settings: Bassia scoparia, post-emergence, 240 h
Procedure, shortened: as §1

[11] = tested on: Galium (catchweed bedstraw, Galium aparine); assay: Test A postemergence; settings: Galium, post-emergence, 240 h
Procedure, shortened: as §1

[12] = tested on: ryegrass, Italian (Italian ryegrass, Lolium multiflorum); assay: Test A postemergence; settings: Lolium multiflorum, post-emergence, 240 h
Procedure, shortened: as §1

[13] = tested on: wheat (Triticum aestivum); assay: Test A postemergence; settings: Triticum aestivum, post-emergence, 240 h
Procedure, shortened: as §1

[14] = tested on: blackgrass (Alopecurus myosuroides); assay: Test A postemergence; settings: Alopecurus myosuroides, post-emergence, 240 h
Procedure, shortened: as §1

[15] = tested on: giant foxtail (Setaria faberii); assay: Test A postemergence; settings: Setaria faberi, post-emergence, 240 h
Procedure, shortened: as §1

[16] = tested on: ragweed (common ragweed, Ambrosia elatior); assay: Test A postemergence; settings: Ambrosia artemisiifolia, post-emergence, 240 h
Procedure, shortened: as §1

[17] = tested on: sedge, umbrella (small-flower umbrella sedge, Cyperus difformis); assay: Test B flooded paddy test; settings: Cyperus difformis, 250 g ai/ha, Flood; 0 to 100 scale where 0 is no effect and 100 is complete control; read-out: Sedge, Umbrella plant response rating
Procedure, shortened: (§2)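 Percent control, visually estimated after 13–15 d in the greenhouse on a 0–100 basis, compares treated pots with untreated ones; compound was put into paddy water 3 cm above the soil when plants had two leaves.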

[18] = tested on: barnyardgrass (Echinochloa crus-galli); assay: Test B flooded paddy test; settings: Echinochloa crus-galli, 250 g ai/ha, Flood; 0 to 100 scale where 0 is no effect and 100 is complete control; read-out: Barnyardgrass plant response rating
Procedure, shortened: as §2

[19] = tested on: rice (Oryra sativa); assay: Test B flooded paddy test; settings: Oryza sativa, 250 g ai/ha, Flood; 0 to 100 scale where 0 is no effect and 100 is complete control; read-out: Rice plant response rating
Procedure, shortened: as §2

[20] = tested on: ducksalad (Heteranthera limosa); assay: Test B flooded paddy test; settings: Heteranthera limosa, 250 g ai/ha, Flood; 0 to 100 scale where 0 is no effect and 100 is complete control; read-out: Ducksalad plant response rating
Procedure, shortened: as §2

[21] = 125 g ai/ha, preemergence, approx. 10 d

Cc1ccc([C@H]2CN(C)C(=O)[C@@H]2C(=O)Nc2cnccc2C(F)(F)F)cc1 [Compound 1067]
pest or weed control at 31 g/ha ([1]; 31 g ai/ha, 0 to 100 scale where 0 is no effect and 100 is complete control, read-out: Barnyardgrass plant response rating): 30%
pest or weed control at 125 g/ha ([1]; 125 g ai/ha, visual injury rating after approximately 10 d, read-out: Barnyardgrass plant response rating (0 to 100 scale, 0 is no effect, 100 is complete control)): 100%
pest or weed control at 31 g/ha ([2]; 31 g ai/ha, Preemergence): 0%
pest or weed control at 125 g/ha [2, 21]: 0%
pest or weed control at 31 g/ha ([3]; 31 g ai/ha, Preemergence): 0%
pest or weed control at 125 g/ha [3, 21]: 70%
pest or weed control at 31 g/ha ([4]; 31 g ai/ha, Preemergence): 20%
pest or weed control at 125 g/ha [4, 21]: 70%
pest or weed control at 31 g/ha ([5]; 31 g ai/ha, 0 to 100 scale where 0 is no effect and 100 is complete control, read-out: Foxtail, Giant plant response rating): 90%
pest or weed control at 125 g/ha ([5]; 125 g ai/ha, visual injury rating after approximately 10 d, read-out: Foxtail, Giant plant response rating (0 to 100 scale, 0 is no effect, 100 is complete control)): 100%
pest or weed control at 31 g/ha ([6]; 31 g ai/ha, Preemergence): 0%
pest or weed control at 125 g/ha [6, 21]: 60%
pest or weed control at 125 g/ha ([7]; 125 g ai/ha, postemergence, visual injury on 0 to 100 scale (0 no effect, 100 complete control), approx. 10 d, read-out: Barnyardgrass plant response rating): 60%
pest or weed control at 31 g/ha ([7]; Postemergence, 31 g ai/ha, visual injury after approx. 10 d, 0 to 100 scale, 0 no effect, 100 complete control, read-out: Plant response rating, Barnyardgrass): 20%
pest or weed control at 125 g/ha ([8]; 125 g ai/ha, postemergence, visual injury on 0 to 100 scale (0 no effect, 100 complete control), approx. 10 d, read-out: Pigweed plant response rating): 0%
pest or weed control at 31 g/ha ([8]; Postemergence, 31 g ai/ha, visual injury after approx. 10 d, 0 to 100 scale, 0 no effect, 100 complete control, read-out: Plant response rating, Pigweed): 0%
plant injury at 125 g/ha ([9]; 125 g ai/ha, postemergence, visual injury on 0 to 100 scale (0 no effect, 100 complete control), approx. 10 d, read-out: Corn plant response rating): 0%
Corn plant response rating (crop injury, 0 = no effect, 100 = complete kill) at 31 g/ha ([9]; Postemergence, 31 g ai/ha, visual injury after approx. 10 d, 0 to 100 scale, 0 no effect, 100 complete control): 0%
pest or weed control at 125 g/ha ([10]; 125 g ai/ha, postemergence, visual injury on 0 to 100 scale (0 no effect, 100 complete control), approx. 10 d, read-out: Kochia plant response rating): 30%
pest or weed control at 31 g/ha ([10]; Postemergence, 31 g ai/ha, visual injury after approx. 10 d, 0 to 100 scale, 0 no effect, 100 complete control, read-out: Plant response rating, Kochia): 0%
pest or weed control at 125 g/ha ([11]; 125 g ai/ha, postemergence, visual injury on 0 to 100 scale (0 no effect, 100 complete control), approx. 10 d, read-out: Galium plant response rating): 50%
pest or weed control at 31 g/ha ([11]; Postemergence, 31 g ai/ha, visual injury after approx. 10 d, 0 to 100 scale, 0 no effect, 100 complete control, read-out: Plant response rating, Galium): 0%
pest or weed control at 125 g/ha ([12]; 125 g ai/ha, postemergence, visual injury on 0 to 100 scale (0 no effect, 100 complete control), approx. 10 d, read-out: Ryegrass, Italian plant response rating): 0%
pest or weed control at 31 g/ha ([12]; Postemergence, 31 g ai/ha, visual injury after approx. 10 d, 0 to 100 scale, 0 no effect, 100 complete control, read-out: Plant response rating, Ryegrass, Italian): 0%
plant injury at 125 g/ha ([13]; 125 g ai/ha, postemergence, visual injury on 0 to 100 scale (0 no effect, 100 complete control), approx. 10 d, read-out: Wheat plant response rating): 40%
plant injury at 31 g/ha ([13]; Postemergence, 31 g ai/ha, visual injury after approx. 10 d, 0 to 100 scale, 0 no effect, 100 complete control, read-out: Plant response rating, Wheat): 0%
pest or weed control at 125 g/ha ([14]; 125 g ai/ha, postemergence, visual injury on 0 to 100 scale (0 no effect, 100 complete control), approx. 10 d, read-out: Blackgrass plant response rating): 50%
pest or weed control at 31 g/ha ([14]; Postemergence, 31 g ai/ha, visual injury after approx. 10 d, 0 to 100 scale, 0 no effect, 100 complete control, read-out: Plant response rating, Blackgrass): 0%
pest or weed control at 125 g/ha ([15]; 125 g ai/ha, postemergence, visual injury on 0 to 100 scale (0 no effect, 100 complete control), approx. 10 d, read-out: Foxtail, Giant plant response rating): 90%
pest or weed control at 31 g/ha ([15]; Postemergence, 31 g ai/ha, visual injury after approx. 10 d, 0 to 100 scale, 0 no effect, 100 complete control, read-out: Plant response rating, Foxtail, Giant): 30%
pest or weed control at 125 g/ha ([16]; 125 g ai/ha, postemergence, visual injury on 0 to 100 scale (0 no effect, 100 complete control), approx. 10 d, read-out: Ragweed plant response rating): 0%
pest or weed control at 31 g/ha ([16]; Postemergence, 31 g ai/ha, visual injury after approx. 10 d, 0 to 100 scale, 0 no effect, 100 complete control, read-out: Plant response rating, Ragweed): 0%
pest or weed control at 250 g/ha [17]: 0%
pest or weed control at 250 g/ha [18]: 20%
pest or weed control at 250 g/ha [19]: 0%
pest or weed control at 250 g/ha [20]: 85%
